Results published in US20100221388A1, “INSTANTLY SOLUBLE COMPOSITIONS FOR CALCIUM FORTIFICATION OF BEVERAGES” (priority 2008, published 2010).

Tests used:
[1] = visual test of transparency for calcium-oxalate crystal formation in hot black tea with calcium salt (100 mg elemental calcium); format: physicochemical; conditions: 240 ml hot black tea
Method: The data describes the effect of different levels of Mg and ascorbic acid (vitamin C) on appearance of visible calcium oxalate precipitation. The experiments were performed with various soluble calcium salts by adding different levels of ascorbic acid and Magnesium citrate and testing the impact on formation of calcium-oxalate crystals in tea preparations. […] The calcium salt mixture was added and stirred into a cup holding 240 ml of hot black tea made with boiling tap water. A visual test of transparency was made at 5, 10, 15 and 20 minutes after adding the mixture to the tea for determining any impact on solution clarity by formation of calcium-oxalate crystals. If visible crystals were formed within 10 minutes the result was determined “unacceptable”, if visible crystals were formed between 10-20 minutes then the results was marked “borderline”. If no crystals were visible within 20 minutes the result was marked “acceptable”. FIGS. 1-5 show the experimental results for various calcium salts. In each of the figures the X-axis marks the amount of Magnesium Citrate (mg) and the Y-axis marks the amount of ascorbic acid (mg). Each indicia of a circle, diamond or square signifies the experimental outcome of a separate experiment; circles indicate an acceptable outcome, diamonds indicate a borderline acceptable (less than optimal) outcome, and squares indicate an unacceptable outcome.

[2] = tested on: Casein; assay: coagulation in casein-containing preparations with calcium salts (150 mg elemental calcium); format: physicochemical; conditions: room temperature
[3] = casein-containing non-dairy creamer in water

**Q.** Which “minimal amount of ascorbic acid required to delay or prevent calcium oxalate formation” value ([1]; in general across calcium salts (FIGS. 1-5)) does the source give for `O=C1O[C@H]([C@@H](O)CO)C(O)=C1O` [ascorbic acid] here?
**A.** 30 mg

**Q.** With `CC(=O)[O-].CC(=O)[O-].[Ca+2]` [calcium acetate, Calcium diacetate] as the compound, how does the “need for additives to delay or prevent calcium oxalate formation, by calcium salt” value ([1]; ascorbic acid with or without Magnesium Citrate) read?
**A.** additional “competing salt” is required even with higher level of ascorbic acids

**Q.** Which “level sufficient to limit the coagulation to a minimal and acceptable change in appearance” value [2, 3] does the source give for `O=P([O-])([O-])O.[K+].[K+]` [PP, Potassium phosphate dibasic anhydrous] here?
**A.** 825 mg

**Q.** What about the “lowest level required for preventing coagulation” value [2, 3] of the same compound?
**A.** 3000 mg

**Q.** What about the “lowest level that prevented coagulation” value ([2]; half & half (mix of milk and cream)) of the same compound?
**A.** 500 mg

**Q.** What about the “amount sufficient to prevent coagulation” value ([2]; whole milk (about 3% fat)) of the same compound?
**A.** 10 mg
